Key:
Format in all cases: in vivo, human
[1] = system: adult patients with MDD assessed to be at imminent risk for suicide; assay: Adverse events (TEAEs, SAEs), Study 2 (Example 5)
Protocol: The primary objective is to compare the efficacy of ESK+SOC to that of PBO+SOC in reducing the symptoms of MDD, including suicidal ideation, as measured by the change from baseline on the MADRS total score at 24 hours post-first dose.

[2] = system: adult patients with MDD assessed to be at imminent risk for suicide; assay: MADRS total score, Study 2 (Example 5); settings: 24 hours post first dose
Source text: The primary efficacy evaluation will be the MADRS total score. The MADRS will be performed using the Structured Interview Guide for the Montgomery Asberg Depression Rating Scale. The MADRS is a clinician-rated scale designed to be used in subjects with MDD to measure depression severity and detect changes due to antidepressant treatment. The test consists of 10 items, each of which is scored from 0 (item not present or normal) to 6 (severe or continuous presence of the symptoms), for a total possible score of 60. Higher scores represent a more severe condition. The MADRS evaluates apparent sadness, reported sadness, inner tension, sleep, appetite, concentration, lassitude, interest level, pessimistic thoughts, and suicidal thoughts.
The typical recall period for the MADRS is 7 days. In this study, the MADRS will also be administered using a since last assessment recall, a 4-hour recall on Day 1 and Day 25 postdose, and a 24-hour recall on Day 2. For the MADRS performed at 4 hours postdose on Days 1 and 25, the MADRS scores for the sleep item recorded predose on the same day will be carried forward.
The primary objective is to compare the efficacy of ESK+SOC to that of PBO+SOC in reducing the symptoms of MDD, including suicidal ideation, as measured by the change from baseline on the MADRS total score at 24 hours post-first dose. […]
Primary efficacy variable/Primary timepoint: Change in MADRS total score from baseline to 24 hours post first dose (Day 2). The MADRS consists of 10 items that cover all of the core depressive symptoms: each item is scored from 0 (symptom is not present or is normal) to 6 (severe or continuous presence of the symptom). A total score (0 to 60) is calculated by summing the scores of all 10 items. […]

[3] = system: adult patients with MDD assessed to be at imminent risk for suicide; assay: Treatment disposition, Study 2 (Example 5); settings: Esk 84 mg + SOC, double-blind phase, all randomized
Protocol: A total of 273 subjects were screened across 50 sites in 12 countries throughout the study period. Of those, 230 subjects were randomized to 1 of 2 treatment groups in a 1:1 ratio (115 in esketamine 84 mg+SOC and 115 in placebo+SOC). Randomization was stratified by study center and by the physician's assessment of the subject's need of standard of care antidepressant treatment (i.e., antidepressant monotherapy or an antidepressant plus augmentation therapy); the standard of care was determined prior to randomization on Day 1. […] The mean age was 40.8 years, ranging from 18 to 64 years.

[4] = system: adult patients with MDD assessed to be at imminent risk for suicide; assay: MADRS subgroup analysis by prior suicide attempt, pooled Examples 4 and 5; settings: 24 hours after the first dose
Protocol: FIG. 11 is a forest plot for the MADRS at 24 hours post first dose: subgroup analyses pooled analysis for Examples 4 and 5.
In certain aspects, the disclosure relates to methods for reducing symptoms of major depressive disorder, including suicidality, in a human patient assessed to be at imminent risk for suicide comprising the administration of esketamine in addition to standard of care treatment. As reflected in the reported data, for depressive symptoms, the treatment differences favored the administration of esketamine plus standard of care treatment over standard of care treatment alone. In addition, treatment differences between patients that previously attempted suicide (attempters) and those that had not (non-attempters) were also present (see, e.g., data reflected in FIGS. 9-17). […] Improvement in this population is of clinical relevance considering that prior suicide attempt has been identified as the single most important predictor/risk factor for suicide in subjects with MDD.

[5] = system: adult patients with MDD assessed to be at imminent risk for suicide; assay: CGI-SS-R (SIBAT), Study 1 (Example 4); settings: 24 hours post first dose; for CGI-SS-R change, Hodges-Lehmann Est. of Treatment Diff. (95% CI): Esk 84 mg + SOC vs placebo + SOC
Source text: (§1) The SIBAT is a suicide assessment tool that captures suicidal ideation and behavior(s) as reported by patients and reviewed by clinicians permitting efficient collection and documentation of clinical impression of severity of suicidality and imminent and long-term suicide risk and treatment plans.
(§2) The CGI-SS-R rating is scored on a 7-point scale from 0 (normal, not at all suicidal) to 6 (among the most extremely suicidal patients) and will be based on the totality of information available to the clinician, including information from the SIBAT. The CGI-SS-R summarizes the clinician's overall impression of severity of suicidality and will be used to assess the key secondary endpoint in this study. This rating operates like numerous other CGI-severity scales that have been used in other psychiatric studies. These instruments have shown clinical validity and sensitivity to change.
Change in CGI-SS-R from baseline to 24 hours post first dose (Day 2). The CGI-SS-R, derived from the Suicidal Ideation and Behavior Assessment Tool (SIBAT) rating is scored on a 7-point scale from 0 (normal, not at all suicidal) to 6 (among the most extremely suicidal patients).

[6] = system: adult patients with MDD assessed to be at imminent risk for suicide; assay: CGI-SS-R (SIBAT), Study 2 (Example 5); settings: 24 hours post first dose
Source text: as §1, §2
Key secondary efficacy variable: Change in CGI-SS-R from baseline to 24 hours post first dose (Day 2). The CGI-SS-R, derived from the Suicidal Ideation and Behavior Assessment Tool (SIBAT) rating is scored on a 7-point scale from 0 (normal, not at all suicidal) to 6 (among the most extremely suicidal patients).

[7] = esketamine 84 mg+SOC, double-blind phase
[8] = esketamine 84 mg+SOC, safety set

Question: CN[C@]1(c2ccccc2Cl)CCCCC1=O [esketamine, (S)-2-(2-chlorophenyl)-2-(methylamino)cyclohexanone] was tested. Which “Deaths during the study” value [1] did it give?
Answer: no deaths

Question: What about the “Psychiatric SAEs related to suicidal ideation, suicide attempt, or worsening of depression, participants” value ([1]; ESK+SOC, 9-week follow-up phase) of the same molecule?
Answer: 9

Question: What about the “SAE depersonalization/derealization disorder, participants” value ([1]; ESK+SOC, double-blind phase) of the same molecule?
Answer: 1

Question: And the “SAE suicidal ideation, participants” value ([1]; ESK+SOC, double-blind phase)?
Answer: 1

Question: What about the “SAEs: suicide attempts, number” value ([1]; ESK+SOC, double-blind phase) of the same molecule?
Answer: 3

Question: And the “SAE acute stress disorder, participants” value ([1]; ESK+SOC, follow-up phase)?
Answer: 1

Question: What about the “SAE depression-related event, participants” value ([1]; ESK+SOC, follow-up phase) of the same molecule?
Answer: 1

Question: What about the “SAE hemothorax, participants” value ([1]; ESK+SOC, follow-up phase) of the same molecule?
Answer: 1

Question: What about the “SAEs: suicidal ideation-related events, number” value ([1]; ESK+SOC, follow-up phase) of the same molecule?
Answer: 3

Question: And the “SAEs: suicide attempts, number” value ([1]; ESK+SOC, follow-up phase)?
Answer: 4

Question: What about the “Events in ESK+SOC participants considered related to study medication, number” value ([1]; ESK+SOC, kind of event not given) of the same molecule?
Answer: 17

Question: What about the “Psychiatric SAEs related to suicidal ideation, suicide attempt, or worsening of depression, frequency” value ([1]; double-blind phase) of the same molecule?
Answer: < 5%

Question: And the “Subjects with at least one TEAE, %” value [1, 7]?
Answer: 91.2%

Question: What about the “Subjects with serious TEAEs, %” value [1, 7] of the same molecule?
Answer: 4.4%

Question: What about the “TEAE Dissociation, subjects %” value [1, 7] of the same molecule?
Answer: 38.6%

Question: And the “TEAE Dizziness, subjects %” value [1, 7]?
Answer: 41.2%

Question: And the “TEAE Nausea, subjects %” value [1, 7]?
Answer: 33.3%

Question: And the “TEAE dysgeusia, subjects %” value [1, 7]?
Answer: 25.4%

Question: And the “TEAE headache, subjects %” value [1, 7]?
Answer: 21.9%

Question: And the “TEAE paraesthesia, subjects %” value [1, 7]?
Answer: 20.2%

Question: What about the “TEAE somnolence, subjects %” value [1, 7] of the same molecule?
Answer: 22.8%

Question: And the “Subjects with serious AEs, %” value ([1]; esketamine 84 mg+SOC, follow-up phase)?
Answer: 10.1%

Question: And the “Study medication permanently stopped due to an adverse event, subjects %” value [1, 8]?
Answer: 7.9%

Question: And the “Study medication permanently stopped due to an adverse event, subjects n” value [1, 8]?
Answer: 9

Question: What about the “Overall safety and tolerability (in words)” value ([1]; intranasal ESK+SOC) of the same molecule?
Answer: safe and tolerated

Question: And the “Effect size for the primary endpoint (MADRS)” value [2]?
Answer: 0.35

Question: What about the “MADRS total score change, least-square mean difference (SE) vs placebo+SOC” value ([2]; ANCOVA LOCF) of the same molecule?
Answer: −3.9 (1.39)

Question: What about the “MADRS total score, change from baseline to Day 2 (LOCF), mean (SD)” value ([2]; esketamine 84 mg+SOC) of the same molecule?
Answer: −15.7 (11.56)

Question: And the “Discontinuation due to adverse event, subjects %” value [3]?
Answer: 7.8%

Question: What about the “Discontinuation due to adverse event, subjects n” value [3] of the same molecule?
Answer: 9

Question: And the “Estimated difference (95% CI) vs placebo+SOC in change in MADRS total score” value ([4]; subpopulation with prior suicide attempt (FIG. 11))?
Answer: −4.81 (−7.26; −2.36)

Question: What about the “Estimated difference (95% CI) vs placebo+SOC in change in MADRS total score” value ([4]; subpopulation without prior suicide attempt (FIG. 11)) of the same molecule?
Answer: −2.32 (−5.54; 0.91)

Question: What about the “CGI-SS-R change, Hodges-Lehmann Est. of Treatment Diff. (95% CI)” value [5] of the same molecule?
Answer: 0.0 (−1.00; 0.00)

Question: What about the “CGI-SS-R change, Hodges-Lehmann Est. of Treatment Diff. (95% CI)” value ([5]; listed as Esk) of the same molecule?
Answer: 0.0

Question: And the “CGI-SS-R score, Day 2 (DB) LOCF, median” value ([5]; Esk 84 mg + SOC)?
Answer: 2.0

Question: What about the “CGI-SS-R score, change from baseline to Day 2 (LOCF), median (range)” value ([5]; Esk 84 mg + SOC) of the same molecule?
Answer: −1.0 (−6; 2)

Question: What about the “CGI-SS-R score, change from baseline to Day 2 (LOCF), median (range)” value ([5]; Esk 84 mg + SOC, listed as Esk) of the same molecule?
Answer: −1.0

Question: And the “CGI-SS-R change, Hodges-Lehmann estimate (95% CI) of the difference vs placebo+SOC” value [6]?
Answer: 0.0 (0.00; 0.00)

Question: What about the “CGI-SS-R, change from baseline to Day 2 (LOCF), median (range)” value ([6]; esketamine 84 mg+SOC) of the same molecule?
Answer: −1.0 (−6; 2)

From patent US20220304950A1, “[…] THE TREATMENT OF PATIENTS WITH MAJOR DEPRESSIVE DISORDER, INCLUDING SUICIDALITY” (JANSSEN PHARMACEUTICALS, INC., priority 2019, published 2022)
